Results reported in patent US6653321B1, “Naphthylsulfonic acids and related compounds as glucose uptake agonists” (Telik, Inc., priority 1999, dated 2003).

How the values were obtained:
[1] = target: T1, β-kinase domain of the human insulin receptor (CKD) (Homo sapiens, UniProt P06213); assay: 32P-Cytoplasmic Kinase Domain (CKD) autophosphorylation assay; assay type: biochemical; settings: 32P incorporated into CKD band, percentage of the vehicle (DMSO) level; 10 minutes at room temperature; compound concentration not given
T1 construct: The complete β-kinase domain of the human insulin receptor (CKD); made in house
Experimental: The complete β-kinase domain of the human insulin receptor (CKD) was expressed in, and purified from, baculovirus. CKD (4.0 μg/mL), in a solution of 50 mM Tris.HCl, 2 mM MnCl2, 10 mM MgCl2 (50 μl final volume), was combined with […] ATP, and 5 μCi ^32P-ATP (3000 Ci/mmol.). A test compound, or the vehicle (DMSO), was added to a final DMSO concentration of 1%. The mixture was incubated for 10 minutes at room temperature. The reaction was terminated by the addition of 10 μl of 200 mM EDTA. A 30 μl volume was removed, mixed with 5 μl of 6×Laemmeli sodium dodecyl sulfate (SDS) treatment buffer, and heated to 94° C. for 5 minutes. A 20 μl aliquot was then run on an SDS-PAGE gel. The radioactivity incorporated into the CKD band is quantified by phosphorimaging of the gel, or scintillation counting of the excised bands.
The potency of a compound for increasing phosphorylation is expressed as a percentage of the vehicle level.

3T3 L1 fibroblasts = assay: Glucose transport activity (14C-2-deoxy-D-glucose uptake); assay type: cell-based; settings: Mus musculus; differentiated 3T3 L1 cells, insulin 5.6 nM; concentration giving increase in glucose transport generally 150% of the vehicle control
Experimental: 3T3 L1 fibroblasts (ATCC) were grown in Dulbecco's modified Eagle's medium (DMEM) with 10% fetal bovine serum (FBS, medium). The cells were plated at a density of 3×10^4 cells/well in 24-well plates. Two days after confluence was reached, the cells were treated for 3 days with 0.5 mM isobutylmethylxanthine (IBMX), 1 μM dexamethasone, supplemented with 1.7 μM insulin. The cells were then transferred to medium with 1.7 μM insulin for 2 more days. The cells were maintained in medium for an additional 4 days. Finally the cells were serum starved overnight in 0.1% bovine serum albumin (BSA) in DMEM.
The following day, the culture medium was replaced with 150 mM NaCl, 1.7 mM KCl, 0.9 mM CaCl2, 1.47 mM K2HPO4 (pH 7.4) to which was added either the experimental compounds, or their vehicle (DMSO). Insulin or its vehicle (0.01% BSA) was diluted in the assay buffer (containing test compound or vehicle, respectively) to a final concentration of 5.6 nM. After incubation for 30 min at 37° C. 5 μCi/mL ^14C-2-[…]-D-glucose was added, and the incubation was continued for additional 30 min at 37° C. The cells were then washed 3 times with ice-cold PBS/20 mM glucose and […] in 250 μl of lysis buffer (50 mM HEPES pH 7.6, 1% Triton X-100) for 30 min at room temperature. Radioactivity in the lysate was quantified by scintillation counting.
Once ^14C-2-deoxy-D-glucose is transported into the cell it is not released. Glucose transport is, therefore, proportional to the amount of radioactivity in the lysate. The concentration of compound necessary to produce an increase in glucose transport greater than the sum of the standard deviation of the vehicle control plus the largest standard deviation of a test sample (generally 150% of the vehicle control) was recorded as the EC (effective concentration).

T1 sequence (P06213 980-1382 limits assumed): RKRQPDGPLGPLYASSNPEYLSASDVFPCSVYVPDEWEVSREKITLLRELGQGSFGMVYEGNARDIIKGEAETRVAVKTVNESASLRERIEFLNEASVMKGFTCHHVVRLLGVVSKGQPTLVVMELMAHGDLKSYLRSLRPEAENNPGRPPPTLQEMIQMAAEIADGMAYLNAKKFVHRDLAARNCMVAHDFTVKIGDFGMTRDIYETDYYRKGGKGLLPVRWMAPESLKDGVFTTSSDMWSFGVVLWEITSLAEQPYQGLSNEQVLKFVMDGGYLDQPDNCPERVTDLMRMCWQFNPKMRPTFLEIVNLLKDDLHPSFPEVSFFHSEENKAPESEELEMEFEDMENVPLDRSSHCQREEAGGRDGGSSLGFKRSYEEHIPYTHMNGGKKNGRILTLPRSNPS

## O=C(Nc1cccc2cc(S(=O)(=O)O)ccc12)c1cc(NC(=O)c2ccccc2C(=O)O)cc(C(=O)Nc2cccc3cc(S(=O)(=O)O)ccc23)c1 [Compound 17, 2-(N-{3,5-bis[N-(6-sulfonaphthyl)carbamoyl]phenyl}carbamoyl)benzoic acid]
[1]
  Activity (% Control): 92.7 % Control
3T3 L1 fibroblasts
  EC50: > 250 µM

## COc1cccc(C(=O)Nc2cc(C(=O)Nc3cccc4cc(S(=O)(=O)O)ccc34)cc(C(=O)Nc3cccc4cc(S(=O)(=O)O)ccc34)c2)c1 [Compound 13, 5-({3-[(3-methoxyphenyl)carbonylamino]-5-[N-(6-sulfonaphthyl)carbamoyl]phenyl}carbonylamino)naphthalene-2-sulfonic acid]
[1]
  Activity (% Control): 83.7 % Control
3T3 L1 fibroblasts
  EC50: 200 µM

## Cc1cccc(C(=O)Nc2cc(C(=O)Nc3cccc4cc(S(=O)(=O)O)ccc34)cc(C(=O)Nc3cccc4cc(S(=O)(=O)O)ccc34)c2)c1 [Compound 7, 5-({3-[(3-methylphenyl)carbonylamino]-5-[N-(6-sulfonaphthyl)carbamoyl]phenyl}carbonylamino)naphthalene-2-sulfonic acid]
[1]
  Activity (% Control): 93.3 % Control
3T3 L1 fibroblasts
  EC50: > 250 µM

## Cc1ccc(OCC(=O)Nc2cc(C(=O)Nc3cccc4cc(S(=O)(=O)O)ccc34)cc(C(=O)Nc3cccc4cc(S(=O)(=O)O)ccc34)c2)cc1 [Compound 40, 5-({3-[2-(4-methylphenoxy)acetylamino]-5-[N-(6-sulfonaphthyl)carbamoyl]phenyl}carbonylamino)naphthalene-2-sulfonic acid]
[1]
  Activity (% Control): 130.7 % Control
3T3 L1 fibroblasts
  EC50: > 250 µM

## COc1ccc(C(=O)Nc2cc(C(=O)Nc3cccc4cc(S(=O)(=O)O)ccc34)cc(C(=O)Nc3cccc4cc(S(=O)(=O)O)ccc34)c2)cc1 [Compound 9, 5-({3-[(4-methoxyphenyl)carbonylamino]-5-[N-(6-sulfonaphthyl)carbamoyl]phenyl}carbonylamino)naphthalene-2-sulfonic acid]
[1]
  Activity (% Control): 125.3 % Control
3T3 L1 fibroblasts
  EC50: 10 µM

## O=C(Nc1cc(C(=O)Nc2cccc3cc(S(=O)(=O)O)ccc23)cc(C(=O)Nc2cccc3cc(S(=O)(=O)O)ccc23)c1)c1ccc2ccccc2c1 [Compound 24, 5-({3-(2-naphthylcarbonylamino)-5-[N-(6-sulfonaphthyl)carbamoyl]phenyl}carbonylamino)naphthalene-2-sulfonic acid]
[1]
  Activity (% Control): 89.6 % Control

## O=C(Nc1cc(C(=O)Nc2cccc3cc(S(=O)(=O)O)ccc23)cc(C(=O)Nc2cccc3cc(S(=O)(=O)O)ccc23)c1)c1cccnc1 [Compound 36, 5-({3-(3-pyridylcarbonylamino)-5-[N-(6-sulfonaphthyl)carbamoyl]phenyl}carbonylamino)naphthalene-2-sulfonic acid]
[1]
  Activity (% Control): 123.2 % Control

## O=C(Nc1cccc(Cl)c1)Nc1cc(C(=O)Nc2cccc3cc(S(=O)(=O)O)ccc23)cc(C(=O)Nc2cccc3cc(S(=O)(=O)O)ccc23)c1 [Compound 57, 5-[(3-{[(3-chlorophenyl)amino]carbonylamino}-5-[N-(6-sulfonaphthyl)carbamoyl]phenyl)carbonylamino]naphthalene-2-sulfonic acid]
[1]
  Activity (% Control): 109.6 % Control

## Cc1ccc(S(=O)(=O)Nc2cc(C(=O)Nc3cccc4cc(S(=O)(=O)O)ccc34)cc(C(=O)Nc3cccc4cc(S(=O)(=O)O)ccc34)c2)cc1 [Compound 53, 5-[(3-{[(4-methylphenyl)sulfonyl]amino}-5-[N-(6-sulfonaphthyl)carbamoyl]phenyl)carbonylamino]naphthalene-2-sulfonic acid]
[1]
  Activity (% Control): 105.7 % Control

## O=C(O)CC(C(=O)Nc1cc(C(=O)Nc2cccc3cc(S(=O)(=O)O)ccc23)cc(C(=O)Nc2cccc3cc(S(=O)(=O)O)ccc23)c1)c1ccccc1 (centres unmarked) [Compound 27, 3-(N-{3,5-bis[N-(6-sulfonaphthyl)carbamoyl]phenyl}carbamoyl)-3-phenylpropanoic acid]
[1]
  Activity (% Control): 161.2 % Control

## O=C(Nc1cc(C(=O)Nc2cccc3cc(S(=O)(=O)O)ccc23)cc(C(=O)Nc2cccc3cc(S(=O)(=O)O)ccc23)c1)c1ccc([N+](=O)[O-])cc1 [Compound 14, 5-({3-[(4-nitrophenyl)carbonylamino]-5-[N-(6-sulfonaphthyl)carbamoyl]phenyl}carbonylamino)naphthalene-2-sulfonic acid]
[1]
  Activity (% Control): 81.7 % Control

## O=C(Nc1cc(C(=O)Nc2cccc3cc(S(=O)(=O)O)ccc23)cc(C(=O)Nc2cccc3cc(S(=O)(=O)O)ccc23)c1)c1ccncc1 [Compound 35, 5-({3-(4-pyridylcarbonylamino)-5-[N-(6-sulfonaphthyl)carbamoyl]phenyl}carbonylamino)naphthalene-2-sulfonic acid]
[1]
  Activity (% Control): 105.9 % Control

## O=C(Cc1ccccc1)Nc1cc(C(=O)Nc2cccc3cc(S(=O)(=O)O)ccc23)cc(C(=O)Nc2cccc3cc(S(=O)(=O)O)ccc23)c1 [Compound 37, 5-({3-(2-phenylacetylamino)-5-[N-(6-sulfonaphthyl)carbamoyl]phenyl}carbonylamino)naphthalene-2-sulfonic acid]
[1]
  Activity (% Control): 113.2 % Control

## COc1ccc(S(=O)(=O)Nc2cc(C(=O)Nc3cccc4cc(S(=O)(=O)O)ccc34)cc(C(=O)Nc3cccc4cc(S(=O)(=O)O)ccc34)c2)cc1 [Compound 52, 5-[(3-{[(4-methoxyphenyl)sulfonyl]amino}-5-[N-(6-sulfonaphthyl)carbamoyl]phenyl)carbonylamino]naphthalene-2-sulfonic acid]
[1]
  Activity (% Control): 111.1 % Control

## O=C(O)CCC(=O)Nc1cc(C(=O)Nc2cccc3cc(S(=O)(=O)O)ccc23)cc(C(=O)Nc2cccc3cc(S(=O)(=O)O)ccc23)c1 [Compound 32, 3-(N-{3,5-bis[N-(6-sulfonaphthyl)carbamoyl]phenyl}carbamoyl)propanoic acid]
[1]
  Activity (% Control): 109.9 % Control

## O=C(CC(C(=O)O)c1ccccc1)Nc1cc(C(=O)Nc2cccc3cc(S(=O)(=O)O)ccc23)cc(C(=O)Nc2cccc3cc(S(=O)(=O)O)ccc23)c1 (centres unmarked) [Compound 28, 3-(N-{3,5-bis[N-(6-sulfonaphthyl)carbamoyl]phenyl}carbamoyl)-2-phenylpropanoic acid]
[1]
  Activity (% Control): 84.6 % Control

## O=C(Nc1ccccc1)Nc1cc(C(=O)Nc2cccc3cc(S(=O)(=O)O)ccc23)cc(C(=O)Nc2cccc3cc(S(=O)(=O)O)ccc23)c1 [Compound 66, 5-({3-[(phenylamino)carbonylamino]-5-[N-(6-sulfonaphthyl)carbamoyl]phenyl}carbonylamino)naphthalene-2-sulfonic acid]
[1]
  Activity (% Control): 115.5 % Control

## Cc1ccc(NC(=O)Nc2cc(C(=O)Nc3cccc4cc(S(=O)(=O)O)ccc34)cc(C(=O)Nc3cccc4cc(S(=O)(=O)O)ccc34)c2)cc1 [Compound 62, 5-[(3-{[(4-methylphenyl)amino]carbonylamino}-5-[N-(6-sulfonaphthyl)carbamoyl]phenyl)carbonylamino]naphthalene-2-sulfonic acid]
[1]
  Activity (% Control): 102.8 % Control

## O=C(Nc1cccc2cc(S(=O)(=O)O)ccc12)c1cc(NC(=O)c2ccccc2S(=O)(=O)O)cc(C(=O)Nc2cccc3cc(S(=O)(=O)O)ccc23)c1 [Compound 29, 5-({5-[N-(6-sulfonaphthyl)carbamoyl]-3-[(2-sulfophenyl)carbonylamino]phenyl}carbonylamino)naphthalene-2-sulfonic acid]
[1]
  Activity (% Control): 75.6 % Control

## Cc1cccc(NC(=O)Nc2cc(C(=O)Nc3cccc4cc(S(=O)(=O)O)ccc34)cc(C(=O)Nc3cccc4cc(S(=O)(=O)O)ccc34)c2)c1 [Compound 61, 5-[(3-{[(3-methylphenyl)amino]carbonylamino}-5-[N-(6-sulfonaphthyl)carbamoyl]phenyl)carbonylamino]naphthalene-2-sulfonic acid]
[1]
  Activity (% Control): 114.6 % Control

## Cc1ccccc1NC(=O)Nc1cc(C(=O)Nc2cccc3cc(S(=O)(=O)O)ccc23)cc(C(=O)Nc2cccc3cc(S(=O)(=O)O)ccc23)c1 [Compound 60, 5-[(3-{[(2-methylphenyl)amino]carbonylamino}-5-[N-(6-sulfonaphthyl)carbamoyl]phenyl)carbonylamino]naphthalene-2-sulfonic acid]
[1]
  Activity (% Control): 97.5 % Control
